Assay [1] deals with T1, ZmPEPC-C4 (Zea mays, UniProt Q84KR7).
T1 sequence (Q84KR7 1-970): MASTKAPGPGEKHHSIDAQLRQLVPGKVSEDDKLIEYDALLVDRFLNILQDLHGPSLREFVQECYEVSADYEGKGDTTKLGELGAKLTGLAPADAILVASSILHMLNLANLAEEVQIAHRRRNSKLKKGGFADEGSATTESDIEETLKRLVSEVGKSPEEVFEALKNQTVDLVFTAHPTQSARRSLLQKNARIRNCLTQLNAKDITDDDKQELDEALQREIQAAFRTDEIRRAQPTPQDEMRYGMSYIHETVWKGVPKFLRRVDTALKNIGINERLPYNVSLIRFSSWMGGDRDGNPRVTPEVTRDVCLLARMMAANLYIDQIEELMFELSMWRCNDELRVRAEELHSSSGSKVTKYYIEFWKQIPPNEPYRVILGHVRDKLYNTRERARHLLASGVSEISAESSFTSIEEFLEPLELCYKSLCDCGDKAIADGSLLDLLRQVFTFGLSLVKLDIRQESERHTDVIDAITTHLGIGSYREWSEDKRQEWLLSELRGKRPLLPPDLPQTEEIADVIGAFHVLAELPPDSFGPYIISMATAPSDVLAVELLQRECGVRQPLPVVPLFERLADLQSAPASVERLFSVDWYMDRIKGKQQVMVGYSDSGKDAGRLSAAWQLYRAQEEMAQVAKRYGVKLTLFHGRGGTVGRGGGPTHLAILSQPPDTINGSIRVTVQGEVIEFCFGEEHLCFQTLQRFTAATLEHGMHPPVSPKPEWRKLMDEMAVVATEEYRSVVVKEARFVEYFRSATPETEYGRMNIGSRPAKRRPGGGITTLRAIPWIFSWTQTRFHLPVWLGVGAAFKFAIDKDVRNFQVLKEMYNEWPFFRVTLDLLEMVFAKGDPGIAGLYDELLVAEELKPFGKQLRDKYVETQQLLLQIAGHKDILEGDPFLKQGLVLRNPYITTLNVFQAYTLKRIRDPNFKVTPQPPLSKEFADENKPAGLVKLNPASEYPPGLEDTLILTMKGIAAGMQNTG
The assay can be described thus: quenching of ANS-enzyme fluorescence at […] nm, Hill-type fit. The format is binding.

For assay [2], the target named is T1, ZmPEPC-C4. The assay can be described thus: coupled malic dehydrogenase assay, NADH oxidation at […] nm. The format is biochemical. The settings on record: read-out: % inhibition at 10 mM.
For assay [3], the target named is T1, ZmPEPC-C4. Put plainly: ANS fluorescence titration, emission […] nm. The format is binding.
Assay [4] concerns the target T1, ZmPEPC-C4. Put plainly: near-UV CD and limited trypsin proteolysis. The settings on record: 15 mM G6P, pH 7.3; allosteric activator; no effect on ANS fluorescence. The format is binding.

As a reminder, the Kd is the constant that tells how readily two partners part at equilibrium. High values mean a looser complex, low ones a tighter complex. The term inhibition denotes the percentage by which the read-out fell short of the control. Consider `O=C(O)C[C@H](O)C(=O)O` [malate], for which the dissociation constant (Kd) on ZmPEPC-C4 [1] came out at 360 ± 70 µM. The inhibition at 10000 µM at ZmPEPC-C4 [2] amounted to 84.5 ± 0.2%.

The compound `O=S(=O)(O)c1cccc2cccc(Nc3ccccc3)c12` [ANS] gave a Kd on ZmPEPC-C4 [3] of 14.5 ± 1.5 µM. As to `O=P(O)(O)OC[C@H]1OC(O)[C@H](O)[C@@H](O)[C@@H]1O` (stereo partly shown) [G6P], the “near-UV CD and limited trypsin proteolysis” value at ZmPEPC-C4 [4] is “differences were also observed in the CD spectra of the E-PEP, E-G6P, and E-Gly complexes”.

These data come from article PMC8637149 (Heliyon, 2021).
